The test system of one experiment is ABA 107292. Put plainly: MIC, broth microdilution (CLSI), substance alone or ATB combined with compound at 4 or 8 μg/mL. The experiment is classed as cell-based, A. baumannii. Particulars: substance alone. The method in brief: (§1)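 Growth inhibition endpoint, read visually after 16-20 h at 35° C in ambient air. Cation-adjusted Mueller-Hinton broth, inoculum 5·10^5 CFU/mL, CLSI M7-A7 protocol.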

Another experiment deals with ABA UFR151. Described as above. In kind it is cell-based, A. baumannii. As to conditions: substance alone. The method in brief: as §1
The next experiment concerns ABA UFR152. The experiment is described as above. As to conditions: substance alone. In kind it is cell-based, A. baumannii. Put shortly:
as §1

Another experiment relates to ABA UFR153. The experiment is described as above. The experiment is classed as cell-based, A. baumannii. Particulars: substance alone. Put shortly: as §1
A further experiment deals with ABA UFR154. The description is as above. In kind it is cell-based, A. baumannii. Particulars: substance alone. Put shortly: as §1
In a further experiment the test system is ABA UFR155. The experiment is described as above. Particulars: substance alone. The experiment is classed as cell-based, A. baumannii. The method in brief: as §1
The next experiment relates to ABA UFR156. The experiment is described as above. As to conditions: substance alone. In kind it is cell-based, A. baumannii. The method in brief: as §1
In another experiment the test system is ABA UFR157. The description is as above. The experiment is classed as cell-based, A. baumannii. As to conditions: substance alone. Put shortly: as §1
The test system of the next experiment is ABA UFR158. Described as above. Particulars: substance alone. In kind it is cell-based, A. baumannii. Put shortly: as §1
The subject of a further experiment is ABA UFR160. The experiment is described as above. As to conditions: substance alone. The experiment is classed as cell-based, A. baumannii. Put shortly: as §1
Another experiment has as its system ABA UFR161. Described as above. In kind it is cell-based, A. baumannii. Particulars: substance alone. The method in brief: as §1
For another experiment, the system named is PAE UFR48. Put plainly: Fractional Inhibitory Concentration Index, checkerboard assay. The experiment is classed as cell-based, P. aeruginosa. Put shortly: (§2)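 Two-agent checkerboards of 2-fold dilutions in ca-MHB were inoculated at 5.10^5 CFU/mL and incubated 18 h at 35 °C in air, in duplicate; fosfomycin wells also held 25 μg/ml glucose-6-phosphate. FICI calculated as the sum of combination/alone MIC ratios for each drug.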

For another experiment, the system named is PAE UFR90. The experiment is described as above. In kind it is cell-based, P. aeruginosa. Put shortly:
as §2

For the next experiment, the system named is KPN UFR68. The experiment is described as above. The experiment is classed as cell-based, K. pneumoniae. Put shortly:
as §2

The test system of a further experiment is ECL P99. The description is as above. The experiment is classed as cell-based, E. cloacae. Put shortly: as §2
In a further experiment the test system is ECO 190317. The description is as above. The experiment is classed as cell-based, E. coli. The method in brief:
as §2

[1] abbreviates: Acinetobacter baumannii, read-out: MIC.

Structures are written as SMILES. Like-named read-outs stand apart in the source and are kept apart here.

Usually MIC stands for the lowest concentration found to suppress growth.

Regarding `O=C1N2CC(n3ccnn3)=CC(C2)N1OS(=O)(=O)[O-].[Na+]` (stereo not shown) [Example 12, sodium [7-oxo-3-(triazol-1-yl)-1,6-diazabicyclo[3.2.1]oct-3-en-6-yl] sulfate], the MIC with ABA 107292, with ABA UFR151, in the experiment with ABA UFR152, with ABA UFR153, in the experiment on ABA UFR154 and in the experiment with ABA UFR155 was more than 32 µg/mL throughout. For the same molecule, the MIC in the experiment on ABA UFR156, in the experiment with ABA UFR157, with ABA UFR158, with ABA UFR160 and in the experiment on ABA UFR161 was more than 32 µg/mL in each case.

As to `O=C1N2CC(n3cccn3)=C[C@H](C2)N1OS(=O)(=O)[O-].[Na+]` [Example 15, sodium [(5R)-7-oxo-3-pyrazol-1-yl-1,6-diazabicyclo[3.2.1]oct-3-en-6-yl] sulfate], the MIC in the experiment on ABA 107292 (setting [1]), in the experiment with ABA UFR151 (setting [1]), in the experiment with ABA UFR152 (setting [1]), in the experiment on ABA UFR153 (setting [1]), in the experiment on ABA UFR154 (setting [1]) and in the experiment on ABA UFR155 (setting [1]) was more than 32 µg/mL in each case. Further, the MIC with ABA UFR156 (setting [1]), in the experiment on ABA UFR157 (setting [1]), in the experiment with ABA UFR158 (setting [1]), in the experiment on ABA UFR160 (setting [1]) and in the experiment on ABA UFR161 (setting [1]) was more than 32 µg/mL in each case.

For the molecule `O=C1N2CC(n3cccn3)=CC(C2)N1OS(=O)(=O)[O-].[Na+]` (stereo not shown) [Example 11, sodium (7-oxo-3-pyrazol-1-yl-1,6-diazabicyclo[3.2.1]oct-3-en-6-yl) sulfate], the MIC in the experiment on ABA 107292 (setting [1]), with ABA UFR151 (setting [1]), with ABA UFR152 (setting [1]), in the experiment with ABA UFR153 (setting [1]), in the experiment with ABA UFR154 (setting [1]) and in the experiment on ABA UFR155 (setting [1]) was more than 32 µg/mL throughout. For the same molecule, the MIC in the experiment with ABA UFR156 (setting [1]), in the experiment with ABA UFR157 (setting [1]), in the experiment on ABA UFR158 (setting [1]), with ABA UFR160 (setting [1]) and in the experiment on ABA UFR161 (setting [1]) was more than 32 µg/mL each time.

Regarding `NC[C@@H]1CC(=NOCC(N)=O)[C@@H]2CN1C(=O)N2OS(=O)(=O)[O-].O=C(O)C(F)(F)F.[Na+]` [Example 4, 2,2,2-trifluroacetate and sodium [(2S,5S)-4-(2-amino-2-oxo-ethoxy)imino-2-(azaniumylmethyl)-7-oxo-1,6-diazabicyclo[3.2.1]octan-6-yl] sulfate], the FIC index min in the experiment with PAE UFR48 (compound +ATM) was 0.50; in the experiment with PAE UFR48 (compound +FEP) it was 0.63; in the experiment with PAE UFR48 (compound +FOS), 1.20; with PAE UFR48 (compound +MEM), 0.63; in the experiment on PAE UFR48 (compound +PIP), 0.44; in the experiment with PAE UFR90 (compound +ATM) it was 0.53. Further, the FIC index min is recorded as 0.63 in the experiment on PAE UFR90 (compound +FEP); 0.63 with PAE UFR90 (compound +FOS); 1.0 in the experiment on PAE UFR90 (compound +MEM); 0.75 in the experiment with PAE UFR90 (compound +PIP); not above 0.023 with KPN UFR68 (compound +ATM); not above 0.006 in the experiment on KPN UFR68 (compound +FEP). In addition, the FIC index min with KPN UFR68 (compound +FOS) was not above 0.035; in the experiment on KPN UFR68 (compound +MEM), not above 0.023; in the experiment with KPN UFR68 (compound +PIP), not above 0.063; with ECL P99 (compound +ATM), 0.63; in the experiment with ECL P99 (compound +FEP), 0.44; in the experiment on ECL P99 (compound +FOS), not above 0.25. Also, the FIC index min was determined as 0.44 in the experiment with ECL P99 (compound +MEM); 0.56 in the experiment with ECL P99 (compound +PIP); 0.57 in the experiment with ECO 190317 (compound +ATM); 0.31 with ECO 190317 (compound +FEP); 0.53 with ECO 190317 (compound +FOS); 0.87 in the experiment on ECO 190317 (compound +MEM). For the same molecule, in the experiment with ECO 190317 (compound +PIP), the FIC index min was not above 0.74.

(Values after patent US20200024278A1, “COMPOSITION COMPRISING ANTIBIOTIC COMPOUND AND AN HETEROCYCLIC COMPOUND AND THEIR USE IN PREVENTING OR TREATING BACTERIAL INFECTIONS” (MUTABILIS, priority 2016, published 2020).)
